Here are results for 3 compounds from patent US20140323428A1, “ANTINEURITIC PHARMACEUTICAL COMBINATION AND COMPOSITIONS” (priority 2011, published 2014).

Data set [1] concerns tactile allodynia induced by the linkage of the spinal nerves L5 and L6. To be noted: cited from earlier work.
The test system of data set [2] is rats subjected to L5/L6 spinal nerve ligation. Kind of data set: Tactile allodynia (von Frey filaments, 50% withdrawal threshold, % MPE) in rats with L5/L6 spinal nerve ligation. The class given is in vivo, rat. The conditions noted are these: for Effect on 50% withdrawal threshold (anti-allodynic effect): oxcarbazepine 30-300 mg/kg, pregabalin 0.3-30 mg/kg, vitamin B12 0.06-6 mg/kg; for ED50: Rattus norvegicus, read-out: ED50 of the anti-allodynic effect, antiepileptic alone. The method, then: 6-week-old female Wistar rats having a body weight of 140-160 g, were used. Each rat was studied only once and sacrified. The Guidelines for pain investigations in animals (Zimmermann, 1983) were used in all the experiments.
The rats were anesthesized via intraperitoneal route with a mixture of ketamine/xylazine (45 and 12 mg/kg, respectively). A partial incision was carried out in the left transverse lumbar area for isolating and ligating the L5 and L6 left spinal nerves with a silk suture 6-0. The ligation was carried out next to the formation of the sciatic nerve and distal to the dorsal root ganglion. Subsequently, the wound was sutured. Conduct tests were performed 12 days after surgery.
For the determination of tactile allodynia, the rats were placed in individual plastic boxes having a stainless steel metallic mesh bottom during 30 minutes, for their adaptation. The tactile threshold test is based in the induction of the animal's left paw withdrawal to gentle mechanical stimuli. The paw was stimulated by applying mechanical force using different Von Frey filaments ranging from 2.36 g to 6.65 g. The thinner the filament's thickness is, the fewer force is applied, and viceversa. For stimulating the animal's paw, the intermediate filament (3.41 g) was firstly used. The left paw elevation in ten seconds was taken as a positive response and a stimulus with a lower caliber filament was applied. If no withdrawal of the animal's paw occurred, it was considered as a negative response, then a stronger stimulus was applied with the next filament until the animal responded.
Once a change in the response took place, either positive or negative, the stimulation was carried out 4 more times, taking a series of 6 patterns of positive and negative responses (Chaplan et al., 1994). The response patterns were tabulated and the 50% response threshold was calculated by using the Dixon formula (1980).
Graphs of the 50% withdrawal threshold (g) as a function of time (h) were constructed from the obtained data
50% withdrawal threshold (g)=(10^[Xf+Kδ])/10,000
From the data of the 50% withdrawal threshold, bar graphs and dose response curves were constructed for the percentage of anti-allodynic effect represented as the percentage of the maximum possible effect (% MPE), by using the following formula:
% MPE=[(AUC drug−AUC vehicle/(AUC sham−AUC vehicle)]×100
In both curves the value of the ED50 was determined.

Another data set relates to plasmatic proteins. To be noted: cited from earlier work.
For data set [3] the following is noted: cited from earlier work.
The test system of the next data set is patients. To be noted: doses of from 300 to 600 mg; cited from earlier work.
In data set [4] the test system is rats having neuropathic pain. Kind of data set: Motor incoordination observed after oral administration in the allodynia study. The conditions noted are these: rat, in vivo, 300 mg/kg. The protocol: However, with the higher dose (300 mg/kg) the effect was maintained even for 24 hours.
With the higher dose (30 mg/kg) motor incoordination was observed between 1 and 7 hours, whereas with the 10 mg/kg dose, incoordination was observed between 3 and 4 hours after the administration.

“Also recorded” adds a separate entry of the source. Like-named read-outs stand apart in the source and are kept apart here. A value given as a limit tells only on which side of the number the result lay.

As to cyanocobalamin [vitamin B12], the “Effect on tactile allodynia” value in data set [1] is recorded as “capable of reducing tactile allodynia”. Further, in data set [2] (oral), the “Time of maximum anti-allodynic effect” value is listed as “about 3 hours” and the “Effect on 50% withdrawal threshold (anti-allodynic effect)” value (“Effect on 50% withdrawal threshold” for short) is “significantly increased”. Moreover, the “Analgesic effect at 8 hours” value in data set [2] (oral, 8 hours after administration) is “no longer observed”.

A word on the ED50: it is the dose that gives a 50% effect, or the effect in half of the subjects. For the compound `CC(C)C[C@H](CN)CC(=O)O` [pregabalin], the “Binding to plasmatic proteins” value in the data set on plasmatic proteins is given as “does not link to plasmatic proteins”. In addition, in data set [3] (after an oral dose), the Bioavailability is 90%; the “Time of maximum plasma peaks” value was “an hour and a half”. Moreover, in data set [3] (in vivo), the “Excreted by the urinary route” value was “about 98%”, the Half-life of elimination was 6.3 h and the Metabolism entry is recorded as “minimal metabolism”. For the same compound, in data set [3] (oral), the Oral absorption result was “quickly absorbed”. In addition, in the data set on patients, the “Adverse reaction: dizziness” value is given as 27-46% and the “Adverse reaction: drowsiness” value was 15-25%. Also, the ED50 in data set [2] (po) is 3.3 mg/kg. For the same compound, in data set [2] (oral), the “Time of maximum anti-allodynic effect” value is reported as “about 2 hours” and the “Effect on 50% withdrawal threshold” value is recorded as “dose-dependent way; also recorded: significantly increased”. For the same compound, the “Analgesic effect at 24 hours” value in data set [2] (oral, 24 hours after administration) was “no longer observed”.

Consider `NC(=O)N1c2ccccc2CC(=O)c2ccccc21` [oxcarbazepine], for which the ED50 in data set [2] (oral, single agent, from dose-response curves) was 78.8 mg/kg. In addition, in data set [2] (oral), the “Time of maximum anti-allodynic effect” value was “about 3 hours” and the “Effect on 50% withdrawal threshold” value was “dose-dependent way; also recorded: significantly increased”. Besides, the “Time for which the anti-allodynic effect was maintained” value in data set [2] (oral, higher dose 300 mg/kg) was at least 24 h. The “Motor incoordination, time window after administration” value in data set [4] was 2 to 8 h.
